Assays:
[1] = biological target: T1, human recombinant adrenergic α2A receptor (Homo sapiens, UniProt P08913); assay: Adrenergic α2A radioligand binding ([3H]MK-912); conditions: compound at 1 μM; insect Sf9 cells; read-out: Adrenergic (1 μM) α2A, percent inhibition of specific binding
T1 construct: expressed in transfected cells; host or cells: insect Sf9 cells
T1 sequence (P08913 1-465): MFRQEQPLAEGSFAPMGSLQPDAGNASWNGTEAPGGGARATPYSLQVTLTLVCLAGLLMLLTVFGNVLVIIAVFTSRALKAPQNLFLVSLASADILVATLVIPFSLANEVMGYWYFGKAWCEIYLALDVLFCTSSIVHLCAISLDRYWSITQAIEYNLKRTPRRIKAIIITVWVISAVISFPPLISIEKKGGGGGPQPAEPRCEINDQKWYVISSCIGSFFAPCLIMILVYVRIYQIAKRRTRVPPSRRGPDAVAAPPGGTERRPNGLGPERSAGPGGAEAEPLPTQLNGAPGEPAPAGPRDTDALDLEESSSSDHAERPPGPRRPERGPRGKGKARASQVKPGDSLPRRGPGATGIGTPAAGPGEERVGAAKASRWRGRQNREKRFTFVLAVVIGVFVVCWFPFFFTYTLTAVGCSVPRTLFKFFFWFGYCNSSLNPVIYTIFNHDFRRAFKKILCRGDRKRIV
Method: To evaluate in radioligand binding assays the activity of compounds of the invention, human recombinant adrenergic α2A receptor expressed in insect Sf9 cells (Uhlen S et al. J Pharmacol Exp Ther. 271:1558, 1994) in a modified Tris-HCl buffer (50 mM Tris-HCl, pH 7.4, 12.5 mM MgCl2, 2 mM EDTA) was used. Compounds of invention were incubated with 1 nM [^3H]MK-912 for 60 minutes at 25° C. MK912 is (2S-trans)-1,3,4,5′,6,6′,7,12b-octahydro-1′,3′-dimethyl-spiro[2H-benzofuro[2,3-a]quinolizine-2,4′(1′H)-pyrimidin]-2′(3′H)-one hydrochloride Non-specific binding was estimated in the presence of 10 μM WB-4101 (2-(2,6-Dimethoxyphenoxyethyl)aminomethyl-1,4-benzodioxane hydrochloride). Receptor proteins were filtered and washed, the filters were then counted to determine [^3H]MK-912 specifically bound. Compounds were screened at 1 μM or lower, using 1% DMSO as vehicle. Biochemical assay results are presented as the percent inhibition of specific binding in Table 6.

[2] = biological target: T2, human recombinant adrenergic α2B receptor (Homo sapiens, UniProt P18089); assay: Adrenergic α2B radioligand binding ([3H]Rauwolscine); conditions: compound at 1 μM; CHO-K1 cells; read-out: Adrenergic (1 μM) α2B, percent inhibition of specific binding
T2 construct: expressed in transfected cells; host or cells: CHO-K1 cells
T2 sequence (P18089 1-450): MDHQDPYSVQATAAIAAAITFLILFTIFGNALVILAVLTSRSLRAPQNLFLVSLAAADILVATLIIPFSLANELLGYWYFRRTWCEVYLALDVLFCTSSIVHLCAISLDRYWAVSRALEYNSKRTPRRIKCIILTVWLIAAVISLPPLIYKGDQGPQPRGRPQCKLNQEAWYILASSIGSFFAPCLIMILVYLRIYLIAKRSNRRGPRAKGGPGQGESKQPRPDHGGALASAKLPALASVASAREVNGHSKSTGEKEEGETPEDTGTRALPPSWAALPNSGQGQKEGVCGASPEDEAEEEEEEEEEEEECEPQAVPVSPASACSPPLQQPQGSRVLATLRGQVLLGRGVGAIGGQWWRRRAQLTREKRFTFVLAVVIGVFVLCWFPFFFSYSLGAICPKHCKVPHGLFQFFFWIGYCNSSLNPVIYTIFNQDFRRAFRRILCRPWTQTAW
Method: To evaluate in radioligand binding assays the activity of compounds of the invention, human recombinant adrenergic α2B receptor expressed in Chinese hamster ovary (CHO-K1) cells (Uhlen S et al. Eur. J. Pharmacol. 343(1):93, 1998) in a modified Tris-HCl buffer (50 mM Tris-HCl, pH 7.4, 12.5 mM MgCl2, 1 mM EDTA, 0.2% BSA) was used. Compounds of the invention were incubated with 2.5 nM [3H]Rauwolscine for 60 minutes at 25° C. Non-specific binding was estimated in the presence of 10 μM Prozosin. Receptor proteins were filtered and washed, the filters were then counted to determine [^3H]Rauwolscine specifically bound. Compounds were screened at 1 μM or lower, using 1% DMSO as vehicle. Biochemical assay results are presented as the percent inhibition of specific binding in Table 6.

[3] = biological target: T3, human recombinant serotonin (5-Hydroxytryptamine) 5-HT6 receptor (Homo sapiens, UniProt P50406); assay: Serotonin 5-HT6 radioligand binding ([3H]LSD); conditions: compound at 1 μM; HeLa cells; read-out: Serotonin (1 μM) 5-HT6, percent inhibition of specific binding
T3 construct: expressed in transfected cells; host or cells: human HeLa cells
T3 sequence (P50406 whole entry): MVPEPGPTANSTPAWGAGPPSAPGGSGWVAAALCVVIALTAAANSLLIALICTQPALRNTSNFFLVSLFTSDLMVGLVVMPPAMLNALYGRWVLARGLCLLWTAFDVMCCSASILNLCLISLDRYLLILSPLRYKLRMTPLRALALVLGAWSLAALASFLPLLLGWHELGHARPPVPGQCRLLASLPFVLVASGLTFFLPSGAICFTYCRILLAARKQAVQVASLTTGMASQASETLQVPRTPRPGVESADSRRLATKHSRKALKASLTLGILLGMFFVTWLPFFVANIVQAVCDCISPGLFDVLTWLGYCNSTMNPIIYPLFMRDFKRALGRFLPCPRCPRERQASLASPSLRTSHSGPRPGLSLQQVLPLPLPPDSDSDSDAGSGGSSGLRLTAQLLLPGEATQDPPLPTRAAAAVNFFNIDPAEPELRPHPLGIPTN
Method: To evaluate in radioligand binding assays the activity of compounds of the invention, human recombinant serotonin (5-Hydroxytryptamine) 5-HT6 receptor expressed in human HeLa cells (Monsma, F. J. Jr. et al., Mol. Pharmacol. 43:320, 1993) in a modified Tris-HCl buffer (50 mM Tris-HCl, pH 7.4, 150 mM NaCl, 2 mM Ascorbic Acid, 0.001% BSA) was used. Compounds of the invention were incubated with 1.5 nM [3H]Lysergic acid diethylamide (LSD) for 120 minutes at 37° C. Non-specific binding was estimated in the presence of 5 μM Serotonin (5-HT). Receptor proteins were filtered and washed, the filters were then counted to determine [3H]LSD specifically bound. Compounds were screened at 1 μM or lower, using 1% DMSO as vehicle. Biochemical assay results are presented as the percent inhibition of specific binding in Table 7.

[4] = biological target: T4, human recombinant dopamine D2L receptor (Homo sapiens, UniProt P14416); assay: Dopamine D2L radioligand binding ([3H]Spiperone); conditions: compound at 1 μM; CHO cells; read-out: Dopamine (1 μM) D2L, percent inhibition of specific binding
T4 construct: expressed in transfected cells; host or cells: CHO cells
T4 sequence (P14416 whole entry): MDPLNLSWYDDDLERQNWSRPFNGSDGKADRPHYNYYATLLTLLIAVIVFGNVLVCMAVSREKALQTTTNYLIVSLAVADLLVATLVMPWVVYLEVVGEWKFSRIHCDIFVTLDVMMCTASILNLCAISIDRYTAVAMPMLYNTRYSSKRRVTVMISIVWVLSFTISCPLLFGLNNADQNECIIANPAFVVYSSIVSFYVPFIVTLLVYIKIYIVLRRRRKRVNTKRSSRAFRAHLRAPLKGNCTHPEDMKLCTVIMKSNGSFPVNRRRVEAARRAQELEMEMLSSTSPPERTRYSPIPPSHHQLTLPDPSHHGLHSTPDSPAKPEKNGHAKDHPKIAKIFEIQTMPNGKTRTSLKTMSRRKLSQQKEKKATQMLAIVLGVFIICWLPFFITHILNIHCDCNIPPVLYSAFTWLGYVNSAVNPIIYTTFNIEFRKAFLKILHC
Method: To evaluate in radioligand binding assays the activity of compounds of the invention, human recombinant dopamine D2L receptor expressed in Chinese hamster ovary (CHO) cells (Grandy, D. K. et al. Proc. Natl. Acad. Sci. USA. 86:9762, 1989; Hayes, G. et al., Mol. Endocrinol. 6:920, 1992) in a modified Tris-HCl buffer (50 mM Tris-HCl, pH 7.4, 1.4 mM Ascorbic Acid, 0.001% BSA, 150 mM NaCl) was used. Compounds of the invention were incubated with 0.16 nM [^3H]Spiperone for 120 minutes at 25° C. Non-specific binding was estimated in the presence of 10 μM Haloperidol. Receptor proteins were filtered and washed, the filters were then counted to determine [^3H]Spiperone specifically bound. Compounds were screened at 1 μM or lower, using 1% DMSO as vehicle. Biochemical assay results are presented as the percent inhibition of specific binding in Table 6.

CCOC(=O)CCn1c2c(c3cc(C)ccc31)CN(C)CC2 [CD1, ethyl 3-(1,2,3,4-tetrahydro-2,8-dimethylpyrido[4,3-b]indol-5-yl)propanoate]
inhibition at 1 µM [1]: 62% | inhibition at 1 µM [2]: 95% | inhibition at 1 µM [3]: 78%

CCOC(=O)CCn1c2c(c3cc(Cl)ccc31)CN(C)CC2 [CD17, ethyl 3-(8-chloro-1,2,3,4-tetrahydro-2-methylpyrido[4,3-b]indol-5-yl)propanoate]
inhibition at 1 µM [1]: 87% | inhibition at 1 µM [2]: 99% | inhibition at 1 µM [4]: 22% | inhibition at 1 µM [3]: 101%

CN1CCc2c(c3cc(Cl)ccc3n2CC(=O)O)C1 [CD46, 2-(8-chloro-1,2,3,4-tetrahydro-2-methylpyrido[4,3-b]indol-5-yl)acetic acid]
inhibition at 1 µM [1]: 13% | inhibition at 1 µM [2]: 35% | inhibition at 1 µM [4]: 3% | inhibition at 1 µM [3]: 39%

Cc1ccc2c(c1)c1c(n2CCC(=O)O)CCN(C)C1 [CD47, 3-(1,2,3,4-tetrahydro-2,8-dimethylpyrido[4,3-b]indol-5-yl)propanoic acid]
inhibition at 1 µM [1]: 17% | inhibition at 1 µM [2]: 24% | inhibition at 1 µM [4]: 4% | inhibition at 1 µM [3]: 11%

CN1CCc2c(c3cc(Cl)ccc3n2CCC(=O)O)C1 [CD55, 3-(8-chloro-1,2,3,4-tetrahydro-2-methylpyrido[4,3-b]indol-5-yl)propanoic acid]
inhibition at 1 µM [1]: -2% | inhibition at 1 µM [2]: 10% | inhibition at 1 µM [4]: 3% | inhibition at 1 µM [3]: -3%

Cc1ccc2c(c1)c1c(n2CC#N)CCN(C)C1 [CD61, 2-(1,2,3,4-tetrahydro-2,8-dimethylpyrido[4,3-b]indol-5-yl)acetonitrile]
inhibition at 1 µM [1]: 73% | inhibition at 1 µM [2]: 89% | inhibition at 1 µM [3]: 68%

C#CCn1c2c(c3cc(C)ccc31)CN(C)CC2 [CD73, 2,8-dimethyl-5-(prop-2-ynyl)-2,3,4,5-tetrahydro-1H-pyrido[4,3-b]indole]
inhibition at 1 µM [1]: 70% | inhibition at 1 µM [2]: 101% | inhibition at 1 µM [3]: 83%

CNC(=O)CCn1c2c(c3cc(C)ccc31)CN(C)CC2 [Compound 1, 3-(1,2,3,4-tetrahydro-2,8-dimethylpyrido[4,3-b]indol-5-yl)-N-methylpropanamide]
inhibition at 1 µM [1]: 18% | inhibition at 1 µM [2]: 51% | inhibition at 1 µM [3]: 8%

CCNC(=O)CCn1c2c(c3cc(C)ccc31)CN(C)CC2 [Compound 2, N-ethyl-3-(1,2,3,4-tetrahydro-2,8-dimethylpyrido[4,3-b]indol-5-yl)propanamide]
inhibition at 1 µM [1]: 35% | inhibition at 1 µM [2]: 55% | inhibition at 1 µM [3]: 19%

Cc1ccc2c(c1)c1c(n2CCC(=O)NC2CCCCC2)CCN(C)C1 [Compound 3, N-cyclohexyl-3-(1,2,3,4-tetrahydro-2,8-dimethylpyrido[4,3-b]indol-5-yl)propanamide]
inhibition at 1 µM [1]: 14% | inhibition at 1 µM [2]: 80% | inhibition at 1 µM [3]: 19%

Cc1ccc2c(c1)c1c(n2CCC(=O)NC2CCCC2)CCN(C)C1 [Compound 4, N-cyclopentyl-3-(1,2,3,4-tetrahydro-2,8-dimethylpyrido[4,3-b]indol-5-yl)propanamide]
inhibition at 1 µM [1]: 45% | inhibition at 1 µM [2]: 93% | inhibition at 1 µM [3]: 28%

CCOC(=O)CCCn1c2c(c3cc(C)ccc31)CN(C)CC2 [Compound 5, ethyl 4-(1,2,3,4-tetrahydro-2,8-dimethylpyrido[4,3-b]indol-5-yl)butanoate]
inhibition at 1 µM [1]: 74% | inhibition at 1 µM [2]: 98% | inhibition at 1 µM [3]: 88%

CCNC(=O)CCCn1c2c(c3cc(C)ccc31)CN(C)CC2 [Compound 6, N-ethyl-4-(1,2,3,4-tetrahydro-2,8-dimethylpyrido[4,3-b]indol-5-yl)butanamide]
inhibition at 1 µM [1]: 59% | inhibition at 1 µM [2]: 36% | inhibition at 1 µM [3]: 23%

Cc1ccc2c(c1)c1c(n2CCNC(=O)OCC(Cl)(Cl)Cl)CCN(C)C1 [Compound 8, 2,2,2-trichloroethyl 2-(1,2,3,4-tetrahydro-2,8-dimethylpyrido[4,3-b]indol-5-yl)ethylcarbamate]
inhibition at 1 µM [1]: 90% | inhibition at 1 µM [2]: 102% | inhibition at 1 µM [3]: 83%

From patent US9115137B2, “2,3,4,5-tetrahydro-1H-pyrido[4,3-B]indole compounds and methods of use thereof” (priority 2008, dated 2015)
